≈ marks a conversion by molar mass, not a printed value. Where “and” joins values, the source holds several entries; their conditions need not be identical. Equal entries are not always repeated. Where a SMILES comes first, the peptide text is derived from it.
What was measured:
[1] = tested on: HEK-293; test: MTT cytotoxicity on normal cells; assay type: cell-based, human; conditions: 25 µM (highest tested concentration), 24 h, serum-free medium
Description: (§1) The used mammalian cell lines in our study were colorectal adenocarcinoma (Caco2, ATCC-HTB-37), colorectal carcinoma (HCT 116, ATCC-CCL-247), lung carcinoma (A549, ATCC- CCL-185), cervical cancer cells (HeLa, ATCC-CCL-2), neuroblastoma (SH-SY5Y, ATCC- CRL-2266), rhabdomyosarcoma (RD, ATCC- CCL-136) and human embryonic kidney cells (HEK 293, ATCC- CRL-1573). All the cells were maintained into Dulbecco’s Modified Eagle’s Medium (DMEM) supplemented with 10% heat-inactivated fetal bovine serum, 2 mM L-Glutamine, 100 U/ml penicillin–streptomycin (Pen/Strep) at 37 °C in 5% CO2 humidified incubator.
(§2) First, the cytotoxic effect of 24 h serum deprivation on all the selected cell lines was evaluated by MTT assay, following standard protocols. Briefly, cells were seeded and maintained at 37 °C and 5% CO2 in 24-well plates until they reached 75–80% confluency (zero time). Following washing twice with 1X PBS, cells were incubated in a serum-free medium for 24 h, under the same incubation conditions. The cell viability percentages were calculated and compared to zero time as 100% viability to nullify any possible effects of serum deprivation. Thence, the cell viability percentage of each cell line in response to 24 h treatment with different concentrations of each cryptide in serum-free medium was calculated. […] All the measured cell viability percentages were normalised against the corresponding negative controls.

[2] = tested on: S. enterica mature biofilm; test: Antibiofilm microtiter plate assay (mature biofilm, crystal violet); assay type: cell-based, Salmonella enterica (ATCC, 14028); conditions: for Minimal biofilm eradication concentration (MBEC) S. enterica: tested 12.5-200 µM
Description: The antibiofilm activities of the selected cryptides against S. enterica and MRSA mature biofilms were examined by microtiter plate assay as previously described, with slight modification. During the mid-logarithmic phase, S. enterica and MRSA were suspended at the density of 1.7 × 10^8 CFU/ml in MHB. Then 100 µl of each bacterial suspension was dispensed into a vinyl 96 U-shaped-well plate and incubated overnight at 37 °C. The mature biofilms were washed with 10 mM Tris–HCl containing 5 mM D-glucose at pH 7.4 and treated for 8 h with 100 µl of two-fold serially diluted cryptides, under the same incubation conditions. A sterile MHB medium was used as the positive control while an equivalent volume of acidified water was used to treat the negative controls. The treated biofilms were washed twice with the same washing buffer and stained with 0.1% crystal violet for 15 min followed by rinsing with sterile distilled water twice and then dried for 30 min at 37 °C. The stain was dissolved with 33% acetic acid and transferred to an optically clear 96-well flat bottom plate which was then measured at 600 nm.
Table S.4 Antibiofilm activities of the selected Cryptides against S. enterica and MRSA. Microbial cells were suspended at 1.7 X 10^8 CFU/ml density, during the mid-logarithmic phase in MHB. Then, 96 U-shaped -well plates were inoculated with 100 µl of microbial suspension and incubated for 48 h at 37 °C. The formed biofilms were washed with 10 mM Tris-HCl and treated with 100 µl of different concentrations of each peptide for 24 h. The treated biomasses were washed and fixed with methanol for 15 min at -20 °C before staining with 0.1 % crystal violet. The stained biofilms were dissolved in 100 µl of 33 % acetic acid and the quantities of crystal violet stains were determined by measuring absorbance at 600 nm as an indicator of the remaining biomass after treatment. Untreated cells were used as negative control [indicating 100 % biofilm integrity] while the sterile medium was used as a positive control [indicating 0 % biofilm integrity].
S. enterica MRSA S. enterica MRSA S. enterica MRSA S. enterica MRSA S. enterica MRSA

[3] = tested on: C. albicans; assay type: cell-based, Candida albicans (TIMM, 1768); conditions: 20 µl of wells without growth on Sabouraud 4% Dextrose Agar, 18 h, 37 °C
[4] = tested on: B. subtilis; assay type: cell-based, Bacillus subtilis (ATCC, 11774); conditions: 20 µl of wells without growth on agar, 18 h, 37 °C
[5] = tested on: P. aeruginosa; assay type: cell-based, Pseudomonas aeruginosa (ATCC, 10145); conditions: 20 µl of wells without growth on agar, 18 h, 37 °C
[6] = tested on: P. aeruginosa; assay type: cell-based, Pseudomonas aeruginosa (ATCC, 10145); conditions: micro-broth dilution, 3 h peptide treatment then MHB 18 h, 37 °C, OD 600 nm
Excerpt: (§3) The microbial strains used in this study were Bacillus subtilis (ATCC, 11774), Candida albicans (TIMM, 1768), Enterococcus faecalis (ATCC, 33186), Escherichia coli (ATCC, 11775), Klebsiella pneumoniae (ATCC, 13883), Methicillin-resistant Staphylococcus aureus (ATCC, BAA-41), Pseudomonas aeruginosa (ATCC, 10145), Salmonella enterica (ATCC, 14028), Serratia marcescens (ATCC, 13880), Staphylococcus aureus (ATCC, 25923) and Vibrio parahaemolyticus (ATCC, 17802). All microbial strains were cultivated overnight at 37 °C and 200 rpm, then subcultured and incubated for 3 h under the same incubation conditions to obtain the mid-logarithmic growth phase. The cultivated cells were washed twice with 10 mM Tris–HCl containing 5 mM D-glucose at pH 7.4 and suspended in the same buffer to be used in different assays, as previously described.
(§4) As a conclusive quantitative assessment, broth microtiter assay was used to determine the MIC values of each cryptide against B. subtilis, MRSA, S. enterica, P. aeruginosa, V. parahaemolyticus and C. albicans by following the guidelines of the Clinical and Laboratory Standards Institute (CLSI)[67], with slight modifications. Eighty microliters of 5 × 10^4 CFU/ml of each pathogen were dispensed into a 96-well polypropylene microtiter plate. The wells were then treated with 20 µl of serially diluted cryptides for 3 h at 37 °C. Gentamicin was used for positive controls at 0.2 mg/ml while an equivalent volume of acidified water was used for negative controls. The plates were then topped up with a final concentration of 1 × Mueller Hinton Broth (MHB) and incubated for 18 h under the same incubation conditions. MIC was detected as the lowest concentration of each cryptide that prevents the optically detectable microbial growth at OD = 600 nm.

[7] = assay type: cell-based; conditions: 24 h, serum-free medium, MTT, 37 °C, 5% CO2; mean ± SD; read-out: IC50 (µM) A459
Description: as §1, §2

[8] = tested on: S. enterica; assay type: cell-based, Salmonella enterica (ATCC, 14028); conditions: micro-broth dilution, 3 h peptide treatment then MHB 18 h, 37 °C, OD 600 nm
Excerpt: as §3, §4

[9] = tested on: HeLa; assay type: cell-based, human; conditions: 24 h, serum-free medium, MTT, 37 °C, 5% CO2; mean ± SD
Description: as §1, §2

[10] = tested on: Caco-2; assay type: cell-based, human; conditions: 24 h, serum-free medium, MTT, 37 °C, 5% CO2; mean ± SD
Description: as §1, §2

[11] = tested on: C. albicans; assay type: cell-based, Candida albicans (TIMM, 1768); conditions: micro-broth dilution, 3 h peptide treatment then MHB 18 h, 37 °C, OD 600 nm
Excerpt: as §3, §4

[12] = crystal violet, absorbance 600 nm, mean ± SD

## CC(C)C[C@H](NC(=O)[C@H](CCCNC(=N)N)NC(=O)[C@H](Cc1c[nH]c2ccccc12)NC(=O)[C@H](CCCNC(=N)N)NC(=O)[C@H](CC(C)C)NC(=O)[C@@H](N)Cc1ccccc1)C(=O)N[C@@H](CCCCN)C(=O)N[C@@H](Cc1ccccc1)C(=O)N[C@@H](CCCCN)C(=O)N[C@@H](CO)C(=O)N[C@@H](CCCCN)C(=O)N[C@H](C(=O)N[C@@H](Cc1c[nH]c2ccccc12)C(=O)N[C@@H](CS)C(=O)N1CCC[C@H]1C(=O)O)C(C)C [AD7] (H-FLRWRLKFKSKVWCP-OH)
[1]
  Cell death of HEK-293: less than 10%
[2]
  Minimal biofilm eradication concentration (MBEC) S. enterica: 100 µM
[3]
  MFC (µM) C. albicans: 6.25 µM (≈ 12.5 µg/mL)
[4]
  MBC (µM) B. subtilis: 0.39 µM (≈ 0.778 µg/mL)
[5]
  MBC (µM) P. aeruginosa: 25 µM (≈ 49.9 µg/mL)
[6]
  MIC (µM) P. aeruginosa: 6.25 µM (≈ 12.5 µg/mL)
[7]
  IC50: 8.5 ± 0.6 µM
[8]
  MIC (µM) S. enterica: 0.78 µM (≈ 1.56 µg/mL)
[9]
  IC50: 101.5 ± 0.9 µM
[10]
  IC50: 11.2 ± 0.7 µM
[11]
  MIC (µM) C. albicans: 1.56 µM (≈ 3.11 µg/mL)

## CSCC[C@H](NC(=O)[C@H](CCCCN)NC(=O)CNC(=O)[C@H](CCCCN)NC(=O)[C@H](Cc1ccc(O)cc1)NC(=O)[C@H](CC(N)=O)NC(=O)[C@H](CC(C)C)NC(=O)[C@H](CCC(N)=O)NC(=O)[C@H](CC(C)C)NC(=O)[C@@H](N)CCCNC(=N)N)C(=O)N[C@@H](Cc1c[nH]c2ccccc12)C(=O)N[C@@H](CS)C(=O)N1CCC[C@H]1C(=O)NCC(=O)N[C@@H](Cc1c[nH]c2ccccc12)C(=O)O [AD11] (H-RLQLNYKGKMWCPGW-OH)
[1]
  Cell death of HEK-293: less than 10%
[2]
  Minimal biofilm eradication concentration (MBEC) S. enterica: 200 µM
[3]
  MFC (µM) C. albicans: 25 µM (≈ 47 µg/mL)
[4]
  MBC (µM) B. subtilis: 0.78 µM (≈ 1.47 µg/mL)
[5]
  MBC (µM) P. aeruginosa: > 50 µM
[6]
  MIC (µM) P. aeruginosa: 25 µM (≈ 47 µg/mL)
[7]
  IC50: 11.1 ± 0.7 µM
[8]
  MIC (µM) S. enterica: 1.56 µM (≈ 2.93 µg/mL)
[9]
  IC50: 16.8 ± 0.6 µM
[10]
  IC50: 26.8 ± 0.4 µM
[11]
  MIC (µM) C. albicans: 25 µM (≈ 47 µg/mL)

## RHCLRSKRPPNVCPH [AD4, cationic cryptide from P. vannamei precursor DN34505 (Pl-crustin 2), chemically synthesised]
[1]
  Cell death of HEK-293: less than 10%
[2]; [12]
  Biofilm eradication S. enterica, 12.5 µM: 6.16 ± 2.7%
  Biofilm eradication S. enterica, 25 µM: 12.58 ± 1.9%
  Biofilm eradication S. enterica, 50 µM: 30.41 ± 1.9%
  Biofilm eradication S. enterica, 100 µM: 45.13 ± 2%
  Biofilm eradication S. enterica, 200 µM: 80.63 ± 1% and 80.63%
[3]
  MFC (µM) C. albicans: 25 µM
[4]
  MBC (µM) B. subtilis: 1.56 µM
[5]
  MBC (µM) P. aeruginosa: > 50 µM
[6]
  MIC (µM) P. aeruginosa: > 50 µM
[7]
  IC50: 8.8 ± 1.1 µM
[8]
  MIC (µM) S. enterica: 3.12 µM
[9]
  IC50: 10.8 ± 0.3 µM
[10]
  IC50: 5.4 ± 0.7 µM
[11]
  MIC (µM) C. albicans: 25 µM
